Laboratory results published in ChEMBL document CHEMBL5260848, “Recent advancements in the development of bioactive pyrazoline derivatives” (Eur J Med Chem, 2020).
≈ marks a conversion by molar mass, not a printed value.

What was measured:
[1] = system: Mycobacterium tuberculosis; assay type: functional; conditions: time 5 day
[2] = system: Mycobacterium tuberculosis; assay type: functional; conditions: time 5 day; remark: listed apart in the source
[3] = system: Mycobacterium tuberculosis; assay type: functional; conditions: time 5 day; remark: listed apart in the source
[4] = system: Escherichia coli; experiment: Antibacterial activity against Escherichia coli incubated for 24 hrs by disc diffusion method; assay type: functional
[5] = system: Aspergillus fumigatus; experiment: Antifungal activity against Aspergillus fumigatus incubated for 24 hrs by disc diffusion method; assay type: functional
[6] = system: Aspergillus niger; experiment: Antifungal activity against Aspergillus niger incubated for 24 hrs by disc diffusion method; assay type: functional
[7] = system: Aspergillus flavus; experiment: Antifungal activity against Aspergillus flavus incubated for 24 hrs by disc diffusion method; assay type: functional
[8] = system: Mycobacterium tuberculosis; experiment: microbe, parasite or virus in culture; conditions: 120 h
[9] = system: Staphylococcus aureus; experiment: microbe, parasite or virus in culture; conditions: 24 h
[10] = system: Bacillus subtilis; experiment: microbe, parasite or virus in culture; conditions: 24 h
[11] = system: Pseudomonas aeruginosa; experiment: microbe, parasite or virus in culture; conditions: 24 h
[12] = system: Candida albicans; experiment: microbe, parasite or virus in culture; conditions: 24 h
[13] = system: Aspergillus fumigatus; experiment: Antifungal activity against Aspergillus fumigatus assessed as zone of inhibition; assay type: functional
[14] = system: Candida albicans; experiment: Antifungal activity against Candida albicans assessed as zone of inhibition; assay type: functional
[15] = system: Aspergillus fumigatus; experiment: Antifungal activity against Aspergillus fumigatus; assay type: functional
[16] = system: Candida albicans; experiment: Antifungal activity against Candida albicans assessed as fungal growth inhibition; assay type: functional
[17] = system: Bacillus subtilis; experiment: Antimicrobial activity against Bacillus subtilis; assay type: functional
[18] = system: Escherichia coli; experiment: Antimicrobial activity against Escherichia coli assessed as inhibition of bacterial growth; assay type: functional
[19] = system: Staphylococcus aureus; experiment: Antimicrobial activity against Staphylococcus aureus assessed as inhibition of bacterial growth; assay type: functional
[20] = system: Proteus vulgaris; experiment: Antimicrobial activity against Proteus vulgaris assessed as inhibition of bacterial growth; assay type: functional

| SMILES | Ratio [1] | Ratio [2] | Ratio [3] | MIC [4] [µg/mL] | MIC [5] [µg/mL] | MIC [6] [µg/mL] | MIC [7] [µg/mL] | MIC [8] [µg/mL] | MIC [9] [µg/mL] | MIC [10] [µg/mL] | MIC [11] [µg/mL] | MIC [12] [µg/mL] | inhibition zone (IZ) [13] [mm] | inhibition zone (IZ) [14] [mm] | MIC [15] [µg/mL] | MIC [16] [µg/mL] | MIC [17] [µg/mL] | MIC [18] [µg/mL] | MIC [19] [µg/mL] | MIC [20] [µg/mL] |
| --- | --- | --- | --- | --- | --- | --- | --- | --- | --- | --- | --- | --- | --- | --- | --- | --- | --- | --- | --- | --- |
| O=C(NNS(=O)(=O)c1ccccc1)N1N=C(c2ccccc2)CC1c1ccccc1 (stereo not given) | 7.81 | 3.9 | 3.9 | 25 (≈ 59.5 µM) | 25 (≈ 59.5 µM) | 25 (≈ 59.5 µM) | 25 (≈ 59.5 µM) | 0.8 (≈ 1.9 µM) | 25 (≈ 59.5 µM) | 25 (≈ 59.5 µM) | 25 (≈ 59.5 µM) | 25 (≈ 59.5 µM) | – | – | – | – | – | – | – | – |
| Clc1ccc(C2CC(c3cccs3)=NN2c2nc(-c3ccccc3)cs2)c(Cl)c1 (stereo not given) | – | – | – | – | – | – | – | – | – | – | – | – | 28 | 23 | 312 (≈ 685 µM) | 62.5 (≈ 137 µM) | 9.77 (≈ 21.4 µM) | 9.77 (≈ 21.4 µM) | 9.77 (≈ 21.4 µM) | 9.77 (≈ 21.4 µM) |
